Here are results for two compounds from patent publication US10772887B2, “Anti-HTLV-1 drug and therapeutic agent for HTLV-1-associated myelopathy/tropical spastic paraparesis (HAM/TSP)” (Kagoshima University, priority 2016, dated 2020).

“And” between values parts separate entries of the source, which are not always exact repeats. Identical values can stand only once.

Series [1] relates to HTLV-1 pX (proviral load) in live cells of PBMCs from AC-derived cases. The series can be described thus: PMA-HTLV-1 viability PCR, PBMCs from AC-derived cases. Type of series: cell-based. Here is the method: PBMCs (1×10^7 cells) from 14 AC-derived cases frozen and preserved in liquid nitrogen were used.
Specimens frozen and preserved in liquid nitrogen were thawed in a water bath at 37° C. and washed twice with approximately 10 mL of PBS at 300×g during centrifugation for 10 minutes, and resuspended in 1 mL of PBS. The cell concentration was counted by the trypan blue exclusion method. Thereafter, each specimen was divided into two groups such that each group includes approximately 100,000 PBMCs. One of the groups was not subjected to PMA treatment, and the other group was subjected to PMA treatment. The sample groups were named “Sample No-Drug-P−” and “Sample No-Drug-P+,” respectively.
A PMA stock solution was added to the sample named “Sample No-Drug-P+” to yield a final concentration of 50 μM in the manner described in Example 2, occasionally shaken under light protection at room temperature for 5 minutes for PMA treatment, and treated with a photo-crosslinker under a halogen lamp for crosslinking during air-cooling for 5 minutes. Genomic DNA was extracted from both samples including the former sample which was not subjected to PMA treatment using DNeazy Blood & Tissue Kits (Cat No 69504, QIAGEN).
RPMI1640 (supplemented with 10% fetal bovine serum, 1% penicillin, and streptomycin) in a volume of 7 mL+α was added to the cell suspension remaining after preparing the two samples in (4-1-2), followed by vortexing. […] After mixing with a shaker for a short period of time, the cells were cultured in a 5% CO2 incubator.
After T=6 h, each specimen was subjected to PMA treatment and crosslinking, and then, genomic DNA was extracted therefrom according to the method described in Example 2.
PMA treatment and DNA extraction were carried out according to the method described in Example 2. Accordingly, 10 samples of genomic DNA from each AC sample to be tested, that is to say, 140 samples from 14 specimens, were prepared.
In this Example, the methods described in Example 2 were used for DNA concentration measurement, working solution preparation, real-time PCR, and the method for calculating PMA-HTLV-1 viability PCR indexes.
All samples were examined at N=14.

Series [2] relates to HTLV-1 pX (proviral load) in live cells of PBMCs from HAM cases. Put plainly: PMA-HTLV-1 viability PCR, PBMCs from HAM cases. Format: cell-based. Set-up: key to ΔCτ Drug Mean: ΔCτ = CτD−P+ − CτD+P+ (Cτ shift by drug, PMA-treated). The note with it: N=16. The procedure: PBMCs from 16 HAM cases frozen and preserved in liquid nitrogen were used.
A PMA stock solution (20 mM, frozen and preserved at −20° C. under light protection) was added to cell samples to yield a final concentration of 50 μM, and the tubes were incubated in a dark place (wrapped in aluminum foil) at room temperature for 5 minutes (each tube was sometimes flicked by fingers for mixing).
A photo-crosslinker and a halogen lamp were always used to perform photo-crosslinking using a household 100-V AC power source. The cell specimen volume was adjusted by appropriately adding PBS to 200 μL and irradiation was carried out for 5 minutes at a position 20 cm away from the halogen lamp in the dark. […] Each sample tube was sometimes flicked by fingers for mixing
Frozen PBMC specimens were thawed in a water bath at 37° C. and washed twice with PBS at 300×g, and then, the pellet was suspended in 1 mL of PBS and placed on ice. The cell concentration was counted by the trypan blue exclusion method using a hemocytometer.
Approximately 5×10^5 to 1×10^6 cells were collected in two Eppendorf tubes and the solution volume was adjusted to 200 μL by adding PBS if appropriate. One of the tubes was subjected to PMA treatment and photo-crosslinking, and the other tube was not treated in the same manner. DNA was extracted from both tubes using DNeasy Blood & Tissue Kits (QIAGEN).
To the remaining liquid of the cell suspension of each cell specimen, approximately 7.5 mL of cell medium RPMI1640 (supplemented with 10% of fetal calf serum and 1% of penicillin-streptomycn) was added to adjust the total volume to 8.0 mL+α. Each mixture was plated in a volume of approximately 2000 μL on a 6-well polystyrene plate such that 4 wells were used per cell specimen.
After adding the drug, each mixture was gently shaken on a shaker and incubation was started at 37° C. in a 5% CO2 incubator.
At T=6 h, about a half volume of the cell suspension of each well was harvested, collected in an Eppendorf tube, and centrifuged at 3,500 rpm×10 min. The supernatant was discarded, and the pellet was resuspended with 1 mL of PBS. Centrifugation was performed again at 3,500 rpm×10 min, and the supernatant was discarded, followed by washing. PBS was added to yield a volume of 200 μL, and all specimens were subjected to PMA treatment and photo-crosslinking. Subsequently, the specimens were washed with PBS again, and DNA was extracted with DNeasy Blood & Tissue Kits (QIAGEN).
The procedures were performed as in the case of T=6 h described in (1-2-5) above. DNA samples were named, for example, “Sample No-Imatinib600 nM-12 h.”
The DNA concentration was measured by ND-1000 (Thermo Fisher Scientific), and DNA was prepared in an amount (10 ng/μL×triplicate or more) sufficient for real-time PCR to be performed in triplicate. DNA was frozen and preserved at −20° C. until use.
According to the protocol (for the PCR system of 25 μL in total) of TaqMan Universal Master Mix II (#4440044, Thermo Fisher Scientific), 20 μM forward and reverse primers, 8 μM TaqMan probes, 2× Universal Master Mix II, and D2 W were mixed. The mixture was pipetted in a volume of 25 μL into each of triplicate wells of a MicroAmp Fast 96-well Reaction Plate (0.1 mL) (REF 4346907, Applied Biosystems) provided with MicroAmp Optical Adhesive Film (P/N 4311971, Applied Biosystems).
A standard dilution series for standard curve creation was prepared from the following five points for pX: NTC (No Template Control); 2 copies/μL (10 copies at 5 μL); 20 copies/μL (100 copies at 5 μL); 200 copies/μL (1000 copies at 5 μL); and […] (10000 copies at 5 μL).
The thermal cycle program was carried out using the StepOne Plus real-time PCR system (Applied Biosystems) and StepOne software ver. 2.3 with 1 cycle in a holding stage at 50° C.×2 minutes and 95° C.×10 minutes and 45 cycles of amplification at 95° C.×15 seconds and 60° C.×1 minute.
Index of the Cτ extension effect by ABL1 inhibitor treatment: ΔCτDrug=CτD−P+−CτD+P+ [Formula 3]

Series [3] relates to HTLV-1 proviral load (PVL). The series can be described thus: Peripheral blood PVL before and after oral imatinib in an anti-HTLV-1 antibody-positive CML patient with HAM. Type of series: in vivo, human. The note with it: 2844 copies before drug administration, one patient.
A further series relates to NC-derived CD4+ T cells. The note with it: 5 μM, 24-hour treatment, FIG. 2 A/B.
In the next series the test system is NC-derived non-CD4-PBMCs. The note with it: 5 μM, 24-hour treatment, FIG. 2 C/D.
For series [4] the following is noted: read-out: Cmax concentration; based on package inserts / in vivo dynamics data; concentration examined in terms of Cmax; cited from earlier work.
The test system of series [5] is HAM-derived non-CD4-PBMCs. The note with it: 5 μM, 24-hour treatment, FIG. 2 C/D.

In the case of `Cc1ccc(NC(=O)c2ccc(CN3CCN(C)CC3)cc2)cc1Nc1nccc(-c2cccnc2)n1` [imatinib], the “pX decrease rate in live cells (%) Mean” value is given as 23.83% in series [1] (Imatinib 600 nM, 6 h, N=14); “approximately 45%” in series [1] (Imatinib 600 nM, 12 h, N=14); 45.46% in series [1] (Imatinib 600 nM, 12 h, N=14, listed as Imatinib); 51.65% in series [1] (Imatinib 5 μM, 6 h, N=14); 58.25% in series [1] (Imatinib 5 μM, 12 h, N=14); 50.35% in series [2] (Imatinib 600 nM, 6 h). Moreover, the “pX decrease rate in live cells (%) Mean” value stood at 66.37% in series [2] (Imatinib 600 nM, 12 h); 43.37% in series [2] (Imatinib 5 μM, 6 h); 44.99% in series [2] (Imatinib 5 μM, 12 h). The “ΔCτ Drug Mean” value in series [1] (Imatinib 600 nM, 6 h, N=14) is reported as −0.28; in series [1] (Imatinib 600 nM, 12 h, N=14) it was −0.98; in series [1] (Imatinib 5 μM, 6 h, N=14), −1.45; in series [2] (Imatinib 600 nM, 6 h), −1.30; in series [2] (Imatinib 600 nM, 12 h), −1.96; in series [2] (Imatinib 5 μM, 6 h), −0.99. Besides, the “ΔCτ Drug Mean” value in series [2] (Imatinib 5 μM, 12 h) was −1.49. For the same compound, the “peripheral blood PVL” value came out at 448 copies/10^4 PBMCs in series [3] (1 year and 5 months after drug administration); 1138 copies in series [3] (after 5 months of drug administration, oral 400 then 300 mg/day).

Take `Cc1cn(-c2cc(NC(=O)c3ccc(C)c(Nc4nccc(-c5cccnc5)n4)c3)cc(C(F)(F)F)c2)cn1` [nilotinib]: the “cell death of NC-derived CD4+ T cells” value with NC-derived CD4+ T cells is “cell death does not occur”. Besides, the “pX decrease rate in live cells (%) Mean” value was 53.23% in series [1] (Nilotinib 30 nM, 6 h, N=14); ~71% and 71.38% in series [1] (Nilotinib 30 nM, 12 h, N=14); 71.38% in series [1] (Nilotinib 30 nM, 12 h, N=14, listed as Nilotinib); 50.50% in series [1] (Nilotinib 3 μM, 6 h, N=14); 58.56% in series [1] (Nilotinib 3 μM, 12 h, N=14); 69.51% in series [2] (Nilotinib 30 nM, 6 h). For the same compound, the “pX decrease rate in live cells (%) Mean” value in series [2] (Nilotinib 30 nM, 12 h) is on record as 78.00%; in series [2] (Nilotinib 3 μM, 6 h), 53.82%; in series [2] (Nilotinib 3 μM, 12 h), 36.19%. For the same compound, the “ΔCτ Drug Mean” value in series [1] (Nilotinib 30 nM, 6 h, N=14) is reported as −1.26; in series [1] (Nilotinib 30 nM, 12 h, N=14) it was −1.56; in series [1] (Nilotinib 3 μM, 6 h, N=14), −1.05; in series [1] (Nilotinib 3 μM, 12 h, N=14), −1.36; in series [2] (Nilotinib 30 nM, 6 h), −2.03; in series [2] (Nilotinib 30 nM, 12 h), −2.63. In addition, the “ΔCτ Drug Mean” value in series [2] (Nilotinib 3 μM, 6 h) is reported as −0.86; in series [2] (Nilotinib 3 μM, 12 h) it was −1.46. Besides, the “cell death of non-CD4-PBMCs, NC” value in the series on NC-derived non-CD4-PBMCs is recorded as “significantly observed”. Besides, in the series with HAM-derived CD4+ T cells, the “cell death of HAM-derived CD4+ T cells” value was “cause cell death to occur”. Further, the Cmax in series [4] was 3000 nM. Moreover, the “cell death of non-CD4-PBMCs, HAM” value in series [5] is given as “significantly observed”.
